# Measured values published in US20240139220A1, “TREATMENT OF HPV INFECTION” (priority 2022, published 2024).
# Like-named read-outs stand apart in the source and are kept apart here.
# Legend:
# Format in all cases: physicochemical
# [1] = Bulk stability, accelerated storage for one week (HPLC, XRPD)
# Method: Bulk stability: Accelerated stability experiments were conducted at 25° C./92% RH and 40° C./75% RH in an open container, 60° C. in a tight container for one week.
# Samples were characterized by XRPD and HPLC and inspected for color change.
# Accelerated stability experiments were conducted at 25° C./92% RH in an open container, at 40° C./75% RH in an open container, and at 60° C. in a tight container for one week.
# [2] = Solubility in buffers, water and simulated vaginal fluid at 37° C.
# Method: About 4 mg of Compound I Pattern 1 was added into 2 mL of buffer solution.
# (§1) Solubility was tested in five media, pH 3.0 citrate buffer, pH 4.5 acetate buffer, pH 6.8 phosphate buffer, water, simulated vaginal fluid (pH 4.2) at 37° C. for 0.5 h and 2 h.
# The salt amount used is equivalent to 10 mg anhydrous free base. […] The obtained clear solutions were analyzed by pH meter for pH, and solubility was determined by observation.
# as §1
# [3] = Hygroscicity by Dynamic Vapor Sorption (DVS) at 25° C.; details: for D. (%) Cycle 1 (Desorption) / D. (%) Cycle 2 (Desorption) / S. (%) Cycle 1 (Sorption) / S. (%) Cycle 2 (Sorption) / XRPD after DVS test: 25° C.; for XRPD after DVS test: cycle 40-0-95-0-40% RH; for Water uptake: DVS 25° C.
# Method: Hygroscopicity was investigated by DVS at 25° C., using the following method: […]
# [4] = Approximate solubility in solvents at 25° C. and 50° C. by visual observation; details: thermodynamic from solid, read-out: Solubility
# Method: The maximum volume of each solvent added was 1 mL. Approximate solubility was determined by visual observation.
# Maximum volume of each solvent added was 1 mL. Approximate solubility was determined by visual observation.
# [5] = 25° C., 84% RH, open container, 2 days
# [6] = 25° C., 92% RH, open container, one week
# [7] = 40° C., 75% RH, open container, one week
# [8] = 60° C., tight container, one week
# [9] = Simulated vaginal fluid (pH adjusted with 0.2N NaOH)
# [10] = cycle of 40-0-95-0-45% relative humidity
smiles,measurement,setting,value
CCOC(=O)C(C)NP(=O)(COCCn1cnc2c(OC)nc(N)nc21)OCc1ccccc1.CCOC(=O)C(C)NP(=O)(COCCn1cnc2c(OC)nc(N)nc21)OCc1ccccc1.O=C(O)C=CC(=O)O (mixture of isomers) [Compound I Hemifumarate Pattern 1],XRPD,[1]; [5],No change
same,HPLC (chemical purity),[1]; [6],97.0%
same,XRPD,[1]; [6],No change
same,HPLC (chemical purity),[1]; [7],90.9%
same,XRPD,[1]; [7],No change
same,Degradation compared,[1]; 40° C./75% RH and 60° C. for one week,tends to degrade more than Compound I monofumarate Pattern 1
same,HPLC (chemical purity),[1]; [8],82.3%
same,XRPD,[1]; [8],No change
same,HPLC (chemical purity),[1]; Initial,97.8%
same,Solubility 0.5 hrs,[2]; [9],>2 mg/mL
same,Solubility 2 hrs,[2]; [9],>2 mg/mL
same,pH at 2 hrs,[2]; [9],(5.30)
same,Solubility 0.5 hrs,[2]; Water,>2 mg/mL
same,Solubility 2 hrs,[2]; Water,>2 mg/mL
same,pH at 2 hrs,[2]; Water,(3.38)
same,Solubility 0.5 hrs,[2]; pH 3.0 100 mM citrate buffer,>2 mg/mL
same,Solubility 2 hrs,[2]; pH 3.0 100 mM citrate buffer,>2 mg/mL
same,pH at 2 hrs,[2]; pH 3.0 100 mM citrate buffer,(3.07)
same,Solubility 0.5 hrs,[2]; pH 4.5 50 mM acetate buffer,>2 mg/mL
same,Solubility 2 hrs,[2]; pH 4.5 50 mM acetate buffer,>2 mg/mL
same,pH at 2 hrs,[2]; pH 4.5 50 mM acetate buffer,(4.45)
same,Solubility 0.5 hrs,[2]; pH 6.8 50 mM phosphate buffer,>2 mg/mL
same,Solubility 2 hrs,[2]; pH 6.8 50 mM phosphate buffer,>2 mg/mL
same,pH at 2 hrs,[2]; pH 6.8 50 mM phosphate buffer,(6.68)
same,D. (%) Cycle 1 (Desorption),[3]; 0% RH,0.13%
same,D. (%) Cycle 2 (Desorption),[3]; 0% RH,0.00%
same,S. (%) Cycle 1 (Sorption),[3]; 0% RH,0.13%
same,S. (%) Cycle 2 (Sorption),[3]; 0% RH,0.00%
same,D. (%) Cycle 1 (Desorption),[3]; 10% RH,0.36%
same,D. (%) Cycle 2 (Desorption),[3]; 10% RH,0.23%
same,S. (%) Cycle 1 (Sorption),[3]; 10% RH,0.34%
same,S. (%) Cycle 2 (Sorption),[3]; 10% RH,0.20%
same,D. (%) Cycle 1 (Desorption),[3]; 20% RH,0.56%
same,D. (%) Cycle 2 (Desorption),[3]; 20% RH,0.44%
same,S. (%) Cycle 1 (Sorption),[3]; 20% RH,0.53%
same,S. (%) Cycle 2 (Sorption),[3]; 20% RH,0.40%
same,D. (%) Cycle 1 (Desorption),[3]; 30% RH,0.79%
same,D. (%) Cycle 2 (Desorption),[3]; 30% RH,0.68%
same,S. (%) Cycle 1 (Sorption),[3]; 30% RH,0.73%
same,S. (%) Cycle 2 (Sorption),[3]; 30% RH,0.61%
same,D. (%) Cycle 1 (Desorption),[3]; 40% RH,1.04%
same,D. (%) Cycle 2 (Desorption),[3]; 40% RH,0.94%
same,S. (%) Cycle 1 (Sorption),[3]; 40% RH,0.96%
same,S. (%) Cycle 2 (Sorption),[3]; 40% RH,0.87%
same,D. (%) Cycle 2 (Desorption),[3]; 50% RH,1.26%
same,S. (%) Cycle 1 (Sorption),[3]; 50% RH,1.22%
same,D. (%) Cycle 2 (Desorption),[3]; 60% RH,1.68%
same,S. (%) Cycle 1 (Sorption),[3]; 60% RH,1.57%
same,D. (%) Cycle 2 (Desorption),[3]; 70% RH,2.25%
same,S. (%) Cycle 1 (Sorption),[3]; 70% RH,2.04%
same,D. (%) Cycle 2 (Desorption),[3]; 80% RH,3.14%
same,S. (%) Cycle 1 (Sorption),[3]; 80% RH,2.80%
same,D. (%) Cycle 2 (Desorption),[3]; 90% RH,4.84%
same,S. (%) Cycle 1 (Sorption),[3]; 90% RH,4.54%
same,D. (%) Cycle 2 (Desorption),[3]; 95% RH,6.87%
same,S. (%) Cycle 1 (Sorption),[3]; 95% RH,6.87%
same,XRPD after DVS test,[3],"No form change,"
same,Water uptake,[3]; up to 95% RH,~6.9%
CCOC(=O)C(C)NP(=O)(COCCn1cnc2c(OC)nc(N)nc21)OCc1ccccc1 (mixture of isomers) [Compound I free base Pattern 1],XRPD,[1]; [5],No change
same,HPLC (chemical purity),[1]; [6],98.5%
same,XRPD,[1]; [6],No change
same,HPLC (chemical purity),[1]; [7],95.2%
same,XRPD,[1]; [7],No change
same,HPLC (chemical purity),[1]; [8],98.5%
same,XRPD,[1]; [8],No change
same,HPLC (chemical purity),[1]; Initial,98.7%
same,Solubility 0.5 hrs,[2]; [9],>2 mg/mL
same,Solubility 2 hrs,[2]; [9],>2 mg/mL
same,pH at 2 hrs,[2]; [9],(5.53)
same,Solubility 0.5 hrs,[2]; Water,>2 mg/mL
same,Solubility 2 hrs,[2]; Water,>2 mg/mL
same,pH at 2 hrs,[2]; Water,(7.55)
same,Solubility 0.5 hrs,[2]; pH 3.0 100 mM citrate buffer,>2 mg/mL
same,Solubility 2 hrs,[2]; pH 3.0 100 mM citrate buffer,>2 mg/mL
same,pH at 2 hrs,[2]; pH 3.0 100 mM citrate buffer,(2.98)
same,Solubility 0.5 hrs,[2]; pH 4.5 50 mM acetate buffer,>2 mg/mL
same,Solubility 2 hrs,[2]; pH 4.5 50 mM acetate buffer,>2 mg/mL
same,pH at 2 hrs,[2]; pH 4.5 50 mM acetate buffer,(4.50)
same,Solubility 0.5 hrs,[2]; pH 6.8 50 mM phosphate buffer,>2 mg/mL
same,Solubility 2 hrs,[2]; pH 6.8 50 mM phosphate buffer,>2 mg/mL
same,pH at 2 hrs,[2]; pH 6.8 50 mM phosphate buffer,(6.81)
same,D. (%) Cycle 1 (Desorption),[3]; 0% RH,0.00%
same,D. (%) Cycle 2 (Desorption),[3]; 0% RH,0.19%
same,S. (%) Cycle 1 (Sorption),[3]; 0% RH,0.00%
same,S. (%) Cycle 2 (Sorption),[3]; 0% RH,0.19%
same,D. (%) Cycle 1 (Desorption),[3]; 10% RH,0.11%
same,D. (%) Cycle 2 (Desorption),[3]; 10% RH,0.37%
same,S. (%) Cycle 1 (Sorption),[3]; 10% RH,0.08%
same,S. (%) Cycle 2 (Sorption),[3]; 10% RH,0.22%
same,D. (%) Cycle 1 (Desorption),[3]; 20% RH,0.23%
same,D. (%) Cycle 2 (Desorption),[3]; 20% RH,0.57%
same,S. (%) Cycle 1 (Sorption),[3]; 20% RH,0.17%
same,S. (%) Cycle 2 (Sorption),[3]; 20% RH,0.30%
same,D. (%) Cycle 1 (Desorption),[3]; 30% RH,0.47%
same,D. (%) Cycle 2 (Desorption),[3]; 30% RH,0.83%
same,S. (%) Cycle 1 (Sorption),[3]; 30% RH,0.28%
same,S. (%) Cycle 2 (Sorption),[3]; 30% RH,0.44%
same,D. (%) Cycle 1 (Desorption),[3]; 40% RH,0.60%
same,D. (%) Cycle 2 (Desorption),[3]; 40% RH,1.09%
same,S. (%) Cycle 1 (Sorption),[3]; 40% RH,0.41%
same,S. (%) Cycle 2 (Sorption),[3]; 40% RH,0.62%
same,D. (%) Cycle 2 (Desorption),[3]; 50% RH,1.48%
same,S. (%) Cycle 1 (Sorption),[3]; 50% RH,0.61%
same,D. (%) Cycle 2 (Desorption),[3]; 60% RH,1.96%
same,S. (%) Cycle 1 (Sorption),[3]; 60% RH,0.85%
same,D. (%) Cycle 2 (Desorption),[3]; 70% RH,2.78%
same,S. (%) Cycle 1 (Sorption),[3]; 70% RH,1.14%
same,D. (%) Cycle 2 (Desorption),[3]; 80% RH,4.33%
same,S. (%) Cycle 1 (Sorption),[3]; 80% RH,1.64%
same,D. (%) Cycle 2 (Desorption),[3]; 90% RH,9.10%
same,S. (%) Cycle 1 (Sorption),[3]; 90% RH,4.27%
same,D. (%) Cycle 2 (Desorption),[3]; 95% RH,14.32%
same,S. (%) Cycle 1 (Sorption),[3]; 95% RH,14.32%
same,XRPD after DVS test,[3],"No form change,"
same,Water uptake,[3]; up to 90% RH,about 4.3%
same,Water uptake,[3]; up to 95% RH,about 14.3%
"CCOC(=O)[C@H](C)N[P@](=O)(COCCn1cnc2c(OC)nc(N)nc21)OCc1ccccc1 (single isomer, unassigned) [Compound III, monofumarate]",Fold increase of retained water content versus Compound II,[3]; [10],40 fold
same,XRPD pattern after humidity cycle,[3]; [10],lose one of the peaks
same,Water content retained,[3]; exposed to a cycle of 40-0-95-0-45% relative humidity,about 10%
"CCOC(=O)[C@H](C)NP(=O)(COCCn1cnc2c(OC)nc(N)nc21)OCc1ccccc1 (stereo partly drawn) [Compound I, ethyl(((2-(2-amino-6-methoxy-9H-purin-9-yl)ethoxy)methylxbenzyloxy)-phosphoryl)-L-alaninate]",Solubility,"[4]; organic solvent or mixture, Acetone, 25° C.",> 100 mg/mL
same,Solubility,"[4]; organic solvent or mixture, Acetone, 50° C.",> 500 mg/mL
same,Solubility,"[4]; organic solvent or mixture, Acetonitrile (ACN), 25° C.",> 100 mg/mL
same,Solubility,"[4]; organic solvent or mixture, Acetonitrile (ACN), 50° C.",> 500 mg/mL
same,Solubility,"[4]; organic solvent or mixture, Dichloromethane (DCM), 25° C.",> 100 mg/mL
same,Solubility,"[4]; organic solvent or mixture, Dichloromethane (DCM), 50° C.",> 500 mg/mL
same,Solubility,"[4]; organic solvent or mixture, Ethanol (EtOH), 25° C.",> 100 mg/mL
same,Solubility,"[4]; organic solvent or mixture, Ethanol (EtOH), 50° C.",> 500 mg/mL
same,Solubility,"[4]; organic solvent or mixture, Ethyl acetate (EA), 25° C.",> 100 mg/mL
same,Solubility,"[4]; organic solvent or mixture, Ethyl acetate (EA), 50° C.",> 500 mg/mL
same,Solubility,"[4]; organic solvent or mixture, Heptanes, 25° C.",< 2 mg/mL
same,Solubility,"[4]; organic solvent or mixture, Heptanes, 50° C.",< 10 mg/mL
same,Solubility,"[4]; organic solvent or mixture, Isopropanol (IPA), 25° C.",> 100 mg/mL
same,Solubility,"[4]; organic solvent or mixture, Isopropanol (IPA), 50° C.",> 500 mg/mL
same,Solubility,"[4]; organic solvent or mixture, Isopropyl acetate (IPAc), 25° C.",> 100 mg/mL
same,Solubility,"[4]; organic solvent or mixture, Isopropyl acetate (IPAc), 50° C.",> 500 mg/mL
same,Solubility,"[4]; organic solvent or mixture, Methanol (MeOH), 25° C.",> 100 mg/mL
same,Solubility,"[4]; organic solvent or mixture, Methanol (MeOH), 50° C.",> 500 mg/mL
same,Solubility,"[4]; organic solvent or mixture, Methyl ethyl ketone (MEK), 25° C.",> 100 mg/mL
same,Solubility,"[4]; organic solvent or mixture, Methyl ethyl ketone (MEK), 50° C.",> 500 mg/mL
same,Solubility,"[4]; organic solvent or mixture, Methyl t-butyl ether (MTBE), 25° C.",< 2 mg/mL
same,Solubility,"[4]; organic solvent or mixture, Methyl t-butyl ether (MTBE), 50° C.",< 10 mg/mL
same,Solubility,"[4]; organic solvent or mixture, Tetrahydrofuran (THF), 25° C.",> 100 mg/mL
same,Solubility,"[4]; organic solvent or mixture, Tetrahydrofuran (THF), 50° C.",167 to 250 mg/mL
same,Solubility,"[4]; Water, 25° C.",20 to 25 mg/mL
same,Solubility,"[4]; Water, 50° C.",25 to 27 mg/mL
